Key:
[1] = system: stem cell-derived cardiomyocytes; assay: Seahorse MitoStress analysis of stem cell-derived cardiomyocytes; type: cell-based, human
Protocol: (§1) Cells were seeded on Matrigel in mTeSR-1 medium and allowed to reach 80-90% confluence. Cardiac differentiation was conducted as previously described (Burridge, P. W. et al. Chemically defined generation of human cardiomyocytes. Nat Methods 11, 855-860, 2014). Briefly, a basal medium named CDM3 was used (RPMI-1640, 500 µg/mL recombinant human serum albumin, 213 µg/mL L-ascorbic acid 2-phosphate and 1% penicillin/streptomycin). At day zero of differentiation, the medium was replaced with CDM3 supplemented with 6 µmol/L CHIR99021 (Stemgent) for two days. At day two of the differentiation the culture-medium was switched to CDM3 medium supplemented with 2 µM Wnt-C59 (Selleckchem), for additional two days. From day four onward, cells were cultured with RPMI supplemented with B27-I (B27 supplement without Insulin; Gibco, USA). […]
Mitochondrial function was measured using the Seahorse XF Cell Mito Stress Test Kit according to the manufacturer’s instructions (Agilent, Santa Clara, CA). […] The basal oxygen consumption rate (OCR) was measured for 30 minutes and then injected 1 µM oligomycin, a mitochondrial complex V inhibitor that blocks oxidative phosphorylation. […]

[2] = system: pluripotent stem cells derived cardiomyocytes; assay: Immunofluorescence / cell shape analysis of stem cell-derived cardiomyocytes; type: cell-based, human; conditions: OA+9CLA+GW9662
Protocol: Cultured cells were fixed using 4% paraformaldehyde for 15 minutes at room temperature. Cells were then permeabilized in blocking solution (2% bovine serum albumin (BSA) and 0.25% Triton X-100 in PBS) for one hour at room temperature and incubated with primary antibodies (Table 13 below) for an additional hour. Following washes, cells were incubated with secondary antibodies (Table 14 below) for 1 hour at room temperature in blocking solution, washed twice in PBS and counterstained with 1 µg/ml Hoechest 33258 (Sigma Aldrich, USA) for 5 minutes. Imaging was performed on a Zeiss LSM 700 confocal microscope. Staining of actin was carried out simultaneously with secondary antibody incubation step by adding a 1:100 of Rhodamine-Phalloidin solution. Microscopic single cell and mitochondrial shape analysis was carried out using the CellProfiler software. Mitochondrial elongation was scored from 0 to 1, where 0 corresponds to a circle and 1 to a rectangle.
Cells were seeded on Matrigel in mTeSR-1 medium and allowed to reach 80-90% confluence. Cardiac differentiation was conducted as previously described (Burridge, P. W. et al. Chemically defined generation of human cardiomyocytes. Nat Methods 11, 855-860, 2014). Briefly, a basal medium named CDM3 was used (RPMI-1640, 500 µg/mL recombinant human serum albumin, 213 µg/mL L-ascorbic acid 2-phosphate and 1% penicillin/streptomycin). […]

UN1 iPSC = assay: Fatty acid supplementation at different steps of 4-step cardiac differentiation; type: cell-based, human; conditions: preliminary studies
Protocol: FIGS. 3A-B. Addition of OA+9CLA during differentiation impairs differentiation. (A) Light Microscopy of UN1 iPSC during 4-step cardiac differentiation (methods) supplemented with 100 µM oleic acid and 50 µM 9CLA at different steps. […] (B) Quantification of portion of complete well death (left) and portion of beating wells resulted by supplementation with 100 µM oleic acid and 50 µM 9CLA at different steps of the 4-step cardiac differentiation (n=24; methods).
as §1

[3] = system: human embryonic stem cells; conditions: hESC on mouse fibroblast feeder layers; cited from earlier work
adipocytes = conditions: short term exposure; cited from earlier work
human muscle cells = conditions: cited from earlier work
[4] = human subjects; cited from earlier work
PPARα = target: T1, PPARα (Homo sapiens, UniProt Q07869); conditions: cited from earlier work
T1 sequence (Q07869 1-468): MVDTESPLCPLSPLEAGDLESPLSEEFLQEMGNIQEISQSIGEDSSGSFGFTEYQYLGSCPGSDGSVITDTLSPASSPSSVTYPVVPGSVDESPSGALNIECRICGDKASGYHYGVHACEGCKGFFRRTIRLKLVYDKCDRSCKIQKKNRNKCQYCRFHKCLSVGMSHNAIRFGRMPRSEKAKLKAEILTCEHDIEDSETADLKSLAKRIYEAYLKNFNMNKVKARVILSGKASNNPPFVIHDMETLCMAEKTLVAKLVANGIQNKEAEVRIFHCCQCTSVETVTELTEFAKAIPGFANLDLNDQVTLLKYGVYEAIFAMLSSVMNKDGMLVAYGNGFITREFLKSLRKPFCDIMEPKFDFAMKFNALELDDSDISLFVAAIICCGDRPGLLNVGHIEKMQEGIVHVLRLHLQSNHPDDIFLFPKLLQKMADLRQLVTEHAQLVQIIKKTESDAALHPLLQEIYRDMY

[5] = obese adults; cited from earlier work
[6] = healthy individuals; cited from earlier work
[7] = 3 week-old rats; cited from earlier work

O=C(Nc1ccccc1)c1cc([N+](=O)[O-])ccc1Cl [GW9662]
effect of GW9662 on the effect of postnatal lipids, in all cases ([1]; all readouts (respiration, glycolysis, cell area, gene expression), 10 µM GW9662): reversed | effect of GW9662 on fatty acid-induced respiration increase and glycolysis decrease ([1]; short-term exposure to GW9662 with OA+9CLA): reversed both effects | effect of PPARα/γ inhibition on OA+9CLA-induced cell area increase [2]: reversed

conjugated linoleic acid [CLA]
outcome of addition during cardiomyocyte differentiation (UN1 iPSC): immature fibroblast-like cells that did not start beating | outcome of addition on terminally differentiated beating cardiomyocytes (UN1 iPSC): mature cardiomyocytes | decrease of differentiation of stem cell colonies [3]: 20% | differentiation of mature adipocytes (adipocytes): delayed the differentiation of mature adipocytes | myogenic gene expression (human muscle cells): suppressed myogenic gene expression | effect on endothelial function [4]: negative effect

CCCCCC/C=C/C=C\CCCCCCCC(=O)O [9CLA, 9Z,11E-octadeca-9,11-dienoic acid]
activity at PPARα (PPARα): agonist | insulin sensitivity and lipid peroxidation [5]: increasing | low density lipoproteins (LDL) [6]: decreasing | effect of treatment [7]: did not have a beneficial effect

From patent US20230295575A1, “METHODS OF INCREASING MATURATION OF HEART, PANCREATIC BETA-CELLS, AND NEURONS” (Yissum Research Development Company of the Hebrew …, priority 2020, published 2023)
